What was measured:
[1] = molecular target: T1, peripheral benzodiazepine binding site (Rattus norvegicus, UniProt P16257); assay: In vitro binding, [3H]-PK11195, kidney membrane preparation; details: PBR IC50 (nM), [3H]-PK11195 (2 nM), 4° C., 1 h
T1 construct: diluted kidney membrane preparation (200 μg); from tissue; host or cells: kidney membrane preparation
Description: Non-specific binding was determined with PK11195 (10 μM).
(§1) Non-specific binding was determined with Flumazenil (20 μM). In both cases, incubations were terminated by rapid filtration through Whatman GF/B glass fibre. Filters were immediately washed 3 times with 5 mL ice-cold 50 mM Tris/HCl at pH 7.4. Filters were counted in a β-scintillation counter (Packard) to measure the amount of bound radioactivity. The IC50 of the compounds for the peripheral benzodiazepine binding site and the central benzodiazepine receptor were calculated using Kell 6 software.

[2] = molecular target: central benzodiazepine receptors; assay: In vitro binding, [3H]-Flumazenil, brain cortex membrane preparation; details: for IC50: [3H]-Flumazenil (2 nM), 25° C., 45 min, read-out: CBR IC50
Description: as §1

SMILES | chromatographic logP (LogP HPLC) | IC50 [1] | IC50 [2] | CBR, % @ 10^−5M ([2]; @ 10^−5M, [3H]-Flumazenil)
CNC(=O)Cc1c(-c2ccc(OCCF)cc2)nc2ccc(Cl)cn12 [PBR106, 2-(2-(4-(2-fluoroethoxy)phenyl)-6-chloroimidazo[1,2-a]pyridin-3-yl)-N-methylacetamide] | 2.05 ± 0.07 | 170 nM | 0.548 µM | 
CCN(C)C(=O)Cc1c(-c2ccc(OCCF)cc2)nc2ccc(Cl)cn12 [PBR107, 2-(2-(4-(2-fluoroethoxy)phenyl)-6-chloroimidazo[1,2-a]pyridin-3-yl)-N-ethyl-N-methylacetamide] | 2.34 ± 0.07 | 54.8 nM | 1.39 µM | 
CC(C)NC(=O)Cc1c(-c2ccc(OCCF)cc2)nc2ccc(Cl)cn12 [PBR110, 2-(2-(4-(2-fluoroethoxy)phenyl)-6-chloroimidazo[1,2-a]pyridin-3-yl)-N-isopropylacetamide] | 2.74 ± 0.09 | 14.1 nM | 2.74 µM | 
CCN(CC)C(=O)Cc1c(-c2ccc(OCCCCF)cc2)nc2ccc(Cl)cn12 [PBR 120, 2-(2-(4-(4-fluorobutoxy)phenyl)-6-chloroimidazo[1,2-a]pyridin-3-yl)-N,N-diethylacetamide] | 3.53 ± 0.11 | 35 nM | 0.942 µM | 
CCN(CC)C(=O)Cc1c(-c2ccc(OCCCF)cc2)nc2c(Cl)cc(Cl)cn12 [PBR 130, 2-(2-(4-(3-fluoropropoxy)phenyl)-6,8-dichloroimidazo[1,2-a]pyridin-3-yl)-N,N-diethylacetamide] | 3.43 ± 0.1 | 20 nM | > 5 µM | 50% @ 10^−5M
CCN(CC)C(=O)Cc1c(-c2ccc(C(C)(C)C)cc2)nc2ccc(F)nn12 [PBR 132, 2-(2-(4-tert-butylphenyl)-6-fluoroimidazo[1,2-b]pyridazin-3-yl)-N,N-diethylacetamide] | 3.6 ± 0.11 | 38 nM | 0.343 µM | 
CCN(CC)C(=O)Cc1c(-c2ccc(OCCF)cc2)nc2c(Cl)cc(Cl)cn12 [PBR 136, 2-(2-(4-(2-fluoroethoxy)phenyl)-6,8-dichloroimidazo[1,2-a]pyridin-3-yl)-N,N-diethylacetamide] | 2.99 ± 0.09 | 17.6 nM | 0.588 µM | 

Reference: US20100209345A1, “Fluorinated Ligands for Targeting Peripheral Benzodiazepine Receptors” (Australian Nuclear Science & Technology Organisation, priority 2006, published 2010)
